ChEMBL document CHEMBL5346923, “Novel pyridinium cationic pleuromutilin analogues overcoming bacterial multidrug resistance” (Eur J Med Chem, 2023)

Tests used:
Assay type in all cases: functional
[1] = test system: Proteus; assay: Antibacterial activity against Proteus CMCC (B) 49027 assessed as inhibition of bacterial growth measured after 24 hrs by MH broth based assay
[2] = test system: Escherichia coli; assay: Antibacterial activity against Escherichia coli ATCC 25922 assessed as inhibition of bacterial growth measured after 24 hrs by MH broth based assay
[3] = test system: Enterococcus; assay: Antibacterial activity against vancomycin-resistant Enterococcus ATCC 700221 assessed as inhibition of bacterial growth measured after 24 hrs by MH broth based assay
[4] = test system: Escherichia coli; assay: Antibacterial activity against Escherichia coli MG1655 harbouring acrB gene assessed as inhibition of bacterial growth measured after 24 hrs by MH broth based assay
[5] = test system: Escherichia coli; assay: Antibacterial activity against Escherichia coli MG1655 assessed as inhibition of bacterial growth measured after 24 hrs by MH broth based assay
[6] = test system: Staphylococcus aureus; assay: Antibacterial activity against Staphylococcus aureus ATCC 29213 assessed as inhibition of bacterial growth measured after 24 hrs by MH broth based assay
[7] = test system: Staphylococcus epidermidis; assay: Antibacterial activity against methicillin-resistant Staphylococcus epidermidis ATCC 51625 assessed as inhibition of bacterial growth measured after 24 hrs by MH broth based assay
[8] = test system: Klebsiella pneumoniae; assay: Antibacterial activity against Klebsiella pneumonia CMCC (B) 46117 assessed as inhibition of bacterial growth measured after 24 hrs by MH broth based assay
[9] = test system: Streptococcus pneumoniae; assay: Antibacterial activity against Streptococcus pneumoniae ATCC 49619 assessed as inhibition of bacterial growth measured after 24 hrs by MH broth based assay
[10] = test system: Staphylococcus aureus; assay: Antibacterial activity against methicillin-resistant Staphylococcus aureus ATCC 43300 assessed as inhibition of bacterial growth measured after 24 hrs by MH broth based assay
[11] = test system: Bacillus subtilis; assay: Antibacterial activity against Bacillus subtilis ATCC 6633 assessed as inhibition of bacterial growth measured after 24 hrs by MH broth based assay

Work on `C=C[C@]1(C)C[C@@H](OC(=O)CSc2cc[n+](CC3CCCO3)cc2)[C@]2(C)[C@H](C)CC[C@]3(CCC(=O)[C@H]32)[C@@H](C)[C@@H]1O.[I-]` (some centres undefined) yielded an MIC [1] greater than 64 mg/L, an MIC [2] of 64 mg/L and an MIC [3] of 64 mg/L. The MIC [4] was 2 mg/L, the MIC [5] was 64 mg/L and the MIC [6] was 1 mg/L. The MIC [7] was 0.25 mg/L, the MIC [8] was 64 mg/L and the MIC [9] was 0.125 mg/L. It also gave an MIC [10] of 1 mg/L and an MIC [11] of 64 mg/L.
`C=C[C@]1(C)C[C@@H](OC(=O)CSc2cc[n+](CCCO)cc2)[C@]2(C)[C@H](C)CC[C@]3(CCC(=O)[C@H]32)[C@@H](C)[C@@H]1O.[I-]` gave an MIC [1] greater than 64 mg/L, an MIC [2] of 64 mg/L and an MIC [3] of 64 mg/L. The MIC [4] was 0.5 mg/L, the MIC [5] was 64 mg/L and the MIC [6] was 1 mg/L. For the same compound, the MIC [7] was 0.5 mg/L, the MIC [8] was 32 mg/L and the MIC [9] was 0.25 mg/L. For the same compound, the MIC [10] was 1 mg/L and the MIC [11] was 64 mg/L.
`C=C[C@]1(C)C[C@@H](OC(=O)CSc2cc[n+](CCCCCCCCCC)cc2)[C@]2(C)[C@H](C)CC[C@]3(CCC(=O)[C@H]32)[C@@H](C)[C@@H]1O.[I-]` was tested, and the MIC [1] was 64 mg/L, the MIC [2] was 16 mg/L and the MIC [3] was 4 mg/L. For the same compound, the MIC [4] was 1 mg/L, the MIC [5] was 16 mg/L and the MIC [6] was 0.25 mg/L. It also gave an MIC [7] of 0.5 mg/L, an MIC [8] of 2 mg/L and an MIC [9] of 0.125 mg/L. For the same compound, the MIC [10] was 1 mg/L and the MIC [11] was 2 mg/L.
With `C=C[C@]1(C)C[C@@H](OC(=O)CSc2cc[n+](CC(=O)NC3CCCC3)cc2)[C@]2(C)[C@H](C)CC[C@]3(CCC(=O)[C@H]32)[C@@H](C)[C@@H]1O.[I-]` the MIC [1] was greater than 64 mg/L, the MIC [2] was 64 mg/L and the MIC [3] was 64 mg/L. For the same compound, the MIC [4] was 8 mg/L, the MIC [5] was 64 mg/L and the MIC [6] was 4 mg/L. It also gave an MIC [7] of 1 mg/L, an MIC [8] of 64 mg/L and an MIC [9] of 1 mg/L. It also gave an MIC [10] of 4 mg/L and an MIC [11] greater than 64 mg/L.
`C=C[C@]1(C)C[C@@H](OC(=O)CSc2cc[n+](CC#CC)cc2)[C@]2(C)[C@H](C)CC[C@]3(CCC(=O)[C@H]32)[C@@H](C)[C@@H]1O.[I-]` was tested, and the MIC [1] was greater than 64 mg/L, the MIC [2] was 64 mg/L and the MIC [3] was 32 mg/L. For the same compound, the MIC [4] was 1 mg/L, the MIC [5] was 64 mg/L and the MIC [6] was 0.125 mg/L. The MIC [7] was 0.063 mg/L, the MIC [8] was 64 mg/L and the MIC [9] was less than 0.031 mg/L. It also gave an MIC [10] of 0.25 mg/L and an MIC [11] greater than 64 mg/L.
Compound `C=C[C@]1(C)C[C@@H](OC(=O)CSc2cc[n+](Cc3ccc(C(=O)OC(C)(C)C)cc3)cc2)[C@]2(C)[C@H](C)CC[C@]3(CCC(=O)[C@H]32)[C@@H](C)[C@@H]1O.[I-]` has an MIC [1] greater than 64 mg/L, an MIC [2] of 64 mg/L and an MIC [3] of 64 mg/L. It also gave an MIC [4] of 4 mg/L, an MIC [5] of 64 mg/L and an MIC [6] of 1 mg/L. The MIC [7] was 0.5 mg/L, the MIC [8] was 64 mg/L and the MIC [9] was 0.25 mg/L. It also gave an MIC [10] of 1 mg/L and an MIC [11] of 64 mg/L.
`C=C[C@]1(C)C[C@@H](OC(=O)CSc2cc[n+](CC(=O)N3CCCCC3)cc2)[C@]2(C)[C@H](C)CC[C@]3(CCC(=O)[C@H]32)[C@@H](C)[C@@H]1O.[I-]` was tested, and the MIC [1] was greater than 64 mg/L, the MIC [2] was 64 mg/L and the MIC [3] was 64 mg/L. The MIC [4] was 2 mg/L, the MIC [5] was 64 mg/L and the MIC [6] was 0.25 mg/L. It also gave an MIC [7] of 0.125 mg/L, an MIC [8] of 64 mg/L and an MIC [9] of 0.125 mg/L. It also gave an MIC [10] of 0.25 mg/L and an MIC [11] greater than 64 mg/L.
Compound `C=C[C@]1(C)C[C@@H](OC(=O)CSc2cc[n+](CCCCC(=O)O)cc2)[C@]2(C)[C@H](C)CC[C@]3(CCC(=O)[C@H]32)[C@@H](C)[C@@H]1O.[I-]` has an MIC [1] greater than 64 mg/L, an MIC [2] greater than 64 mg/L and an MIC [3] of 64 mg/L. For the same compound, the MIC [4] was 16 mg/L, the MIC [5] was 64 mg/L and the MIC [6] was 8 mg/L. The MIC [7] was 4 mg/L, the MIC [8] was greater than 64 mg/L and the MIC [9] was 2 mg/L. It also gave an MIC [10] of 16 mg/L and an MIC [11] greater than 64 mg/L.
For `C=C[C@]1(C)C[C@@H](OC(=O)CSc2cc[n+](Cc3cccc(NC(=O)OC(C)(C)C)c3)cc2)[C@]2(C)[C@H](C)CC[C@]3(CCC(=O)[C@H]32)[C@@H](C)[C@@H]1O.[I-]`, the MIC [1] was greater than 64 mg/L, the MIC [2] was 64 mg/L and the MIC [3] was 16 mg/L. The MIC [4] was 4 mg/L, the MIC [5] was 64 mg/L and the MIC [6] was 0.5 mg/L. The MIC [7] was 0.125 mg/L, the MIC [8] was 64 mg/L and the MIC [9] was less than 0.031 mg/L. It also gave an MIC [10] of 0.5 mg/L and an MIC [11] of 64 mg/L.
